Measurements as given in patent publication US20070093460A1, “Methods of using selective 11beta-HSD inhibitors to treat gluocorticoid associated states” (priority 2005, published 2007).
“Also recorded” adds a separate entry of the source. Read-outs that look alike come from different tables or passages of the source.

Key:
[1] = biological target: T1, 11β-HSD1 Reductase (Rattus norvegicus, UniProt P16232); assay: 11β-HSD1 reductase assay in rat Leydig cell homogenates; details: for inhibitors of 11β-HSD1 reductase (summary in words): summary of the screening;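 for all read-outs here: rat Leydig cell homogenate incubated 20 min at 37 °C, pH 7.4, with tritiated 11-dehydro-corticosterone and 3 mM NADPH, product measured by HPLC, inhibition from triplicate dose–response curves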
T1 sequence (P16232 whole entry): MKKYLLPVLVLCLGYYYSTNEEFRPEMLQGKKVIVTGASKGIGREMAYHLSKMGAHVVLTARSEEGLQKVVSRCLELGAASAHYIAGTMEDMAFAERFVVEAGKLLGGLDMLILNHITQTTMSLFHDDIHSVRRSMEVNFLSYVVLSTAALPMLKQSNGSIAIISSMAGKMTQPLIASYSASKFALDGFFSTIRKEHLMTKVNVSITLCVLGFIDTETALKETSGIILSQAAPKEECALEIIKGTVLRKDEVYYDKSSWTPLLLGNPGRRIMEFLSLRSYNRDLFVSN
Method: (§1) Each enzyme reaction (described below) was stopped by adding 750 μL MeOH. After centrifugation, an aliquot of supernatant was analyzed by HPLC using a DuPont Zorbax C8 column.
(§2) 11β-HSD1 dehydrogenase was assayed by incubating homogenates (13,000 cells equivalent) with 600 nM [^3H]-B (0.5 μCi) in the presence of 3 mM NADP, 50 mM Tris-HCl; pH 8.4 at 37° C. for 10 minutes in a total volume of 250 μL. 11β-HSD1 reductase was assayed by incubating homogenates (52,000 cells equivalent) with 600 nM [^3H]-11-dehydro-corticosterone in presence of 3 mM NADPH, 50 mM Tris-HCl; pH 7.4 at 37° C. for 20 minutes in a total volume of 250 μL.
(§3) Each concentration was tested in triplicate and the dose response curve, showing percentage inhibition versus log concentration of steroid was plotted. The data fitted a log-linear straight line.

[2] = biological target: T2, 11β-HSD1 Dehydrogenase (Rattus norvegicus, UniProt P16232); assay: 11β-HSD1 dehydrogenase assay in rat Leydig cell homogenates; type: biochemical; set-up: Freshly prepared rat Leydig cell homogenates were chosen since they provide a rich and reliable source of both 11β-HSD1 dehydrogenase and reductase; from tissue; host or cells: rat testicular Leydig cells, homogenate; details: for inhibitors of 11β-HSD1 dehydrogenase (summary in words): summary of the screening;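 for all read-outs here: tritiated corticosterone conversion by 11β-HSD1 dehydrogenase in Leydig homogenates with 3 mM NADP at pH 8.4, 37 °C for 10 min, products resolved by HPLC, inhibition relative to uninhibited enzyme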
T2 sequence (P16232 whole entry): as above
Method: as §1, §2, §3

[3] = biological target: T3, 11β-HSD2 (Ovis aries, UniProt P50168); assay: 11β-HSD2 enzyme activity in sheep kidney microsomes; type: biochemical
T3 construct: incubating sheep kidney microsomal fraction (6.5 μg protein) with 50 nM corticosterone; from tissue; host or cells: sheep kidney microsomal fraction
T3 sequence (P50168 1-427): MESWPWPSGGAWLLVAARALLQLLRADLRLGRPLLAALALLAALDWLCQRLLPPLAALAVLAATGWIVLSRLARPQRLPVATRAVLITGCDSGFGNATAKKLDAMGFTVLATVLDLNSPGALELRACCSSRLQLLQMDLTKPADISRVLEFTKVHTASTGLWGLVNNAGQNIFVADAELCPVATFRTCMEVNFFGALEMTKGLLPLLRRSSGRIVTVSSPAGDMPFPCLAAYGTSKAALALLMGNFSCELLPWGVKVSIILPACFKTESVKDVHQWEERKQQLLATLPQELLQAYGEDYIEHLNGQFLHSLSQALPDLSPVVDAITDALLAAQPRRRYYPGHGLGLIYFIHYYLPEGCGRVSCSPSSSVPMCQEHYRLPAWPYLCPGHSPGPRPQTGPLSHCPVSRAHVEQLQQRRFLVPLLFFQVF
Text: The enzymatic reaction was termninated by addition of methanol and synthesis of 11-dehydro-corticosterone was quantitated by HPLC as described above.

[4] = biological target: T1, 11β-HSD1 Reductase; assay: Table 1: inhibition of 11β-HSD1 reductase; type: biochemical; details: Table 1, inhibition in words
[5] = biological target: T2, 11β-HSD1 Dehydrogenase; assay: Table 1: inhibition of 11β-HSD1 dehydrogenase; type: biochemical; details: Table 1, inhibition in words
[6] = biological target: T4, 11β-HSD2 Dehydrogenase (Ovis aries, UniProt P50168); assay: Table 1: inhibition of 11β-HSD2 dehydrogenase; type: biochemical; details: Table 1, inhibition in words
T4 sequence (P50168 1-427): T3 sequence (P50168 1-427)

[7] = read-out: Leydig Cell 11β-HSD1 Reductase [S] = 600 nM, rat Leydig cell homogenates, 600 nM 11-dehydro-corticosterone, progesterone and androgen derivatives
[8] = rat Leydig cell homogenates, 600 nM corticosterone, progesterone and androgen derivatives, read-out: Leydig Cell 11β-HSDl Dehydrogenase [S] = 600 nM
[9] = 11β-HSD2, sheep kidney microsomes, 50 nM corticosterone, NAD+, aldosterone, cortisol, corticosterone series
[10] = 11β-HSD2, sheep kidney microsomes, 50 nM corticosterone, NAD+, aldosterone, cortisol, corticosterone series, read-out: Dehydrogenase [S] = 50 nM
[11] = rat Leydig cell homogenates, 600 nM 11-dehydro-corticosterone, NADPH, corticosteroid series
[12] = read-out: Leydig Cell 11β-HSD1 Reductase [S]= 600 nM, rat Leydig cell homogenates, 600 nM 11-dehydro-corticosterone, NADPH, corticosteroid series
[13] = rat Leydig cell homogenates, 600 nM corticosterone, NADP, corticosteroid series
[14] = rat Leydig cell homogenates, 600 nM corticosterone, NADP, corticosteroid series, read-out: Leydig Cell 11β-HSD1 Dehydrogenase [S]= 600 nM

## C[C@]12CC[C@@H](O)C[C@H]1CC[C@@H]1[C@@H]2C(=O)C[C@]2(C)C(=O)CC[C@@H]12 [11 -Keto-etiocholanolone]
[1]; [7]
  IC50: > 100 µM
[2]; [8]
  IC50: > 100 µM

## C[C@]12CC[C@H](O)C[C@@H]1CC[C@H]1[C@@H]3CC[C@H](O)[C@@]3(C)CC(=O)[C@@H]12 [11 -Keto-3β,5α-TH-Testosterone]
[3]; sheep kidney microsomes, corticosterone substrate, progesterone and androgen derivatives, read-out: Sheep kidney 11β-HSD2 [S] = 50 nM
  IC50: 8 µM
[1]; [7]
  IC50: 0.65 µM
[1]; listed as 11-Keto-3β,5α-TH-Testosterone
  inhibitors of 11β-HSD1 reductase (summary in words): potent inhibitors
[1]; listed as 11-keto-3β,5α-TH-testosterone
  inhibitors of 11β-HSD1 reductase (summary in words): high potency
[2]; rat Leydig cell homogenates, 600 nM corticosterone, progesterone and androgen derivatives
  Leydig Cell 11β-HSDl Dehydrogenase [S] = 600 nM: weak inhibitor
[2]; [8]
  IC50: 50 µM

## C[C@]12CC[C@@H](O)C[C@H]1CC[C@@H]1[C@@H]2[C@@H](O)C[C@]2(C=O)[C@@H](C(=O)CO)CC[C@@H]12 [3α,5β-TH-Aldosterone, 5β-Pregnan-3α,11β,21-triol-20-one-18-al]
[3]; [9]
  Dehydrogenase [S] = 50 nM: inactive
[3]; [10]
  IC50: > 10 µM
[1]; [11]
  Leydig Cell 11β-HSD1 Reductase [S]= 600 nM: inactive
[1]; [12]
  IC50: > 100 µM
[2]; [13]
  Leydig Cell 11β-HSD1 Dehydrogenase [S]= 600 nM: inactive
[2]; [14]
  IC50: > 100 µM

## C[C@]12CC[C@@H](O)C[C@H]1CC[C@H]1[C@@H]3CC[C@H](C(=O)CO)[C@@]3(C)CC(=O)[C@@H]12 [3α,5β-TH- 11 -dehydro-corticosterone, 5β-Pregnan-3α,21-diol-11,20-dione]
[3]; [9]
  Dehydrogenase [S] = 50 nM: inactive
[3]; [10]
  IC50: > 10 µM
[1]; [11]
  Leydig Cell 11β-HSD1 Reductase [S]= 600 nM: inactive
[1]; [12]
  IC50: > 100 µM
[2]; [13]
  Leydig Cell 11β-HSD1 Dehydrogenase [S]= 600 nM: inactive
[2]; [14]
  IC50: > 100 µM

## C[C@]12CC[C@@H](O)C[C@H]1CC[C@@H]1[C@@H]2[C@@H](O)C[C@@]2(C)[C@H]1CC[C@]2(O)C(=O)CO [3α,5β-TH-Cortisol, 5β-Pregnan-3α,11β,17α,21-tetrol-20-one]
[3]; [9]
  Dehydrogenase [S] = 50 nM: inactive
[3]; [10]
  IC50: > 10 µM
[1]
  IC50: > 100 µM
[1]; [11]
  Leydig Cell 11β-HSD1 Reductase [S]= 600 nM: inactive
[2]; [13]
  Leydig Cell 11β-HSD1 Dehydrogenase [S]= 600 nM: inactive
[2]; [14]
  IC50: > 100 µM

## C[C@]12CC[C@@H](O)C[C@@H]1CC[C@@H]1[C@@H]2[C@@H](O)C[C@@]2(C)[C@H]1CC[C@]2(O)C(=O)CO [3α,5α-TH-Cortisol, 5α-Pregnan-3α,11β,17α,21-tetrol-20-one]
[3]; [10]
  IC50: 8 µM
[1]
  IC50: > 100 µM
[1]; [11]
  Leydig Cell 11β-HSD1 Reductase [S]= 600 nM: inactive
[2]; [13]
  Leydig Cell 11β-HSD1 Dehydrogenase [S]= 600 nM: inactive
[2]; [14]
  IC50: 14 µM

## C[C@H](CCC(=O)O)[C@H]1CC[C@H]2[C@@H]3[C@H](O)C[C@@H]4C[C@H](O)CC[C@]4(C)[C@H]3CC[C@]12C [chenodeoxycholic acid]
[4]
  11β-HSD1 Reductase: No Inhibition
[5]
  11β-HSD1 Dehydrogenase: Selective inhibitor
[6]
  11β-HSD2 Dehydrogenase: No Inhibition

## C[C@]12CC[C@@H](O)C[C@@H]1CC[C@@H]1[C@@H]2C(=O)C[C@@]2(C)[C@H]1CC[C@]2(O)C(=O)CO [3α,5α-TH- Cortisone, 5α-Pregnan-3α,17α,21-triol-11,20-dione]
[1]
  IC50: 4.3 µM
[2]; [14]
  IC50: > 100 µM

## C[C@]12CC[C@@H](O)C[C@@H]1CC[C@@H]1[C@@H]2[C@@H](O)C[C@]2(C)[C@@H](O)CC[C@@H]12 [11β-OH-androstanediol, 5α-Androstan-3α,11β,17β-triol]
[3]
  IC50: 4.5 µM
[1]
  IC50: 11.5 µM
[2]
  IC50: 5 µM
  inhibitors of 11β-HSD1 dehydrogenase (summary in words): potent inhibitors; also recorded: high potency

## C[C@]12CC[C@@H](O)C[C@H]1CC[C@@H]1[C@@H]2[C@@H](O)C[C@]2(C)C(=O)CC[C@@H]12 [11β-OH-etiocholanolone]
[1]; [7]
  IC50: > 100 µM
[2]; [8]
  IC50: > 100 µM

## C[C@]12CC[C@@H](O)C[C@H]1CC[C@@H]1[C@@H]2C(=O)C[C@@]2(C)[C@H]1CC[C@]2(O)C(=O)CO [3α,5β-TH-Cortisone, 5β-Pregnan-3α, 17α,21-triol-11,20-dione]
[1]
  IC50: 60 µM
[2]; [14]
  IC50: > 100 µM

## CC(=O)[C@H]1CC[C@@H]2[C@@H]3CCC4=CC(=O)CC[C@]4(C)[C@@H]3[C@@H](O)C[C@]12C [11β-OH-Progesterone, 4-Pregnen-11β-ol-3,20-dione]
[4]
  11β-HSD1 Reductase: No Inhibition
[5]
  11β-HSD1 Dehydrogenase: Potent Inhibitor (Non-Selective)
[1]
  IC50: > 100 µM
[1]; rat Leydig cell homogenates, 600 nM 11-dehydro-corticosterone, progesterone and androgen derivatives
  Leydig Cell 11β-HSD1 Reductase [S]= 600 nM: inactive
[2]; [8]
  IC50: 5.6 µM
[2]
  inhibitors of 11β-HSD1 dehydrogenase (summary in words): potent inhibitors; also recorded: high potency
[2]; listed as 11β-hydroxy-progesterone
  inhibitors of 11β-HSD1 dehydrogenase (summary in words): potently inhibit

## C[C@]12CC[C@@H](O)C[C@@H]1CC[C@@H]1[C@@H]2[C@@H](O)C[C@]2(C)C(=O)CC[C@@H]12 [11β-OH-androsterone, 5α-Androstan-3ct,11β-diol-17-one]
[3]
  IC50: > 10 µM
[1]
  IC50: > 100 µM
[2]
  IC50: > 100 µM

## C[C@]12CCC(=O)C=C1CC[C@@H]1[C@@H]2[C@@H](O)C[C@]2(C=O)[C@@H](C(=O)CO)CC[C@@H]12 [Aldosterone, 4-Pregnen-11,21-diol-3,20-dione-18-al, reference compound]
[3]; [9]
  Dehydrogenase [S] = 50 nM: inactive
[3]; [10]
  IC50: > 10 µM
[1]
  IC50: > 100 µM
[1]; [11]
  Leydig Cell 11β-HSD1 Reductase [S]= 600 nM: inactive
[2]; [13]
  Leydig Cell 11β-HSD1 Dehydrogenase [S]= 600 nM: inactive
[2]; [14]
  IC50: > 100 µM

## C[C@]12CC[C@@H](O)C[C@H]1CC[C@@H]1[C@H]2C(=O)C[C@]2(C)C(=O)CC[C@@H]12 [11 -Keto-androsterone, 5α-Androstan-3a-ol-11,1 7-dione]
[3]
  IC50: > 10 µM
[4]
  11β-HSD1 Reductase: Selective Inhibitor
[5]
  11β-HSD1 Dehydrogenase: No Inhibition
[1]
  IC50: > 100 µM
[2]
  IC50: > 100 µM

## C[C@]12CC[C@@H](O)C[C@H]1CC[C@@H]1[C@H]2C(=O)C[C@]2(C)[C@@H](O)CC[C@@H]12 [3α,5α-reduced-11-keto-testosterone]
[4]
  11β-HSD1 Reductase: Selective Inhibitor
[5]
  11β-HSD1 Dehydrogenase: No Inhibition

## C[C@]12CC[C@@H](O)C[C@H]1CC[C@@H]1[C@@H]2[C@@H](O)C[C@]2(C)[C@@H](C(=O)CO)CC[C@@H]12 [3α,5β-TH-Corticosterone, 5β-Pregnan-3α,11β,21-triol-20-one]
[3]; [9]
  Dehydrogenase [S] = 50 nM: inactive
[3]; [10]
  IC50: > 10 µM
[1]
  IC50: > 100 µM
[1]; [11]
  Leydig Cell 11β-HSD1 Reductase [S]= 600 nM: inactive
[2]; [13]
  Leydig Cell 11β-HSD1 Dehydrogenase [S]= 600 nM: inactive
[2]; [14]
  IC50: > 100 µM

## CC(=O)[C@H]1CC[C@H]2[C@@H]3CC[C@@H]4C[C@H](O)CC[C@]4(C)[C@H]3[C@@H](O)C[C@]12C [11β-OH-pregnanolone, 5β-Pregnan-3α,11β-diol-20-one]
[3]
  IC50: > 10 µM
[3]; sheep kidney microsomes, corticosterone substrate, progesterone and androgen derivatives
  Sheep kidney 11β-HSD2 [S] = 50 nM: inactive
[1]
  IC50: 80 µM
[2]
  IC50: 30 µM
